The values below are quoted from earlier work in US20180179476A1, “SOLVENT COMPOSITIONS FOR USE AS HEPTANE REPLACEMENTS” (TBF ENVIRONMENTAL TECHNOLOGY INC., priority 2015, published 2018).

The structures appear in SMILES notation.

`COC(C)=O` [Methyl acetate]: the stability result (in the presence of strong aqueous bases or aqueous acids) is listed as “not stable”. Moreover, the solubility in water (room temperature) is given as 25%.
